Laboratory results: ChEMBL document CHEMBL1124229, “Spiro hydantoin aldose reductase inhibitors” (J Med Chem, 1988)

Key:
[1] = biological target: T1, Aldo-keto reductase family 1 member B1 (Bos taurus, UniProt P16116); test: In vitro inhibitory activity towards partially purified calf lens aldose reductase; value ranges from 10E-6 - 10E-7
[2] = species on record: Rattus norvegicus; test: Ability to cause 50% reduction in sorbitol levels of sciatic nerve of streptozotocinized rats was determined; format: functional
[3] = biological target: T1, Aldo-keto reductase family 1 member B1; test: Inhibition of partially purified calf lens aldose reductase; value ranges from 10E-4 to 10e-5 M
[4] = biological target: T1, Aldo-keto reductase family 1 member B1; test: In vitro inhibition of partially purified calf lens aldose reductase
[5] = pKa in DMF/H2O was measured; format: physicochemical
[6] = species on record: Rattus norvegicus; test: 50% reduction in sorbitol accumulation in isolated sciatic nerves incubated in the presence of high glucose concentration; format: functional; conditions: Sciatic nerve
[7] = species on record: Rattus norvegicus; test: Dose causing 50% reduction in sorbitol accumulation in sciatic nerves of streptozotocinized rats, (tid)
[8] = biological target: T1, Aldo-keto reductase family 1 member B1; test: In vitro inhibition of partially purified calf lens aldose reductase; value ranges from 10E-5 to 10E-6
[9] = Rattus norvegicus, Sciatic nerve, read-out: ED50

SMILES	ED50 [2, 9]	IC50 [4]	further results
O=C1NC(=O)C2(CCSc3ccc(Cl)cc32)N1 (configuration not stated)	2.5 mg/kg	–	IC50 [1]: 1 µM
O=C1NC(=O)C2(CCOc3ccc(Cl)cc32)C(=O)N1	> 10 mg/kg	–	IC50 [3]: 100 µM
O=C1NC(=O)C2(Cc3ccccc3C2)N1	> 25 mg/kg	> 100 µM	–
O=C(O)C1CCSc2ccccc21 (configuration not stated)	–	100 µM	–
COc1ccc2c(c1)C1(CC2)NC(=O)NC1=O (configuration not stated)	10 mg/kg	10 µM	–
Cc1cc(C)c2c(c1C)OCCC21NC(=O)NC1=O (configuration not stated)	–	1 µM	–
O=C1NC(=O)[C@@]2(CCOc3ccc(Cl)cc32)O1	2.5 mg/kg	0.1 µM	pKa [5]: 5.6; IC50 [6]: 10 µM; ED50 [7]: 1e-05 M/kg
O=C1NC(=O)C2(CCC(C(=O)O)c3ccccc32)N1 (configuration not stated)	–	> 100 µM	–
O=C1NC(=O)[C@@]2(CCOc3ccc(F)cc32)N1 (stereo in doubt; 115) [SORBINIL]	–	–	pKa [5]: 8.7; IC50 [6]: 1 µM; ED50 [2]: 0.25 mg/kg; ED50 [7]: 1e-05 M/kg
NC(=O)NC(=O)C1CCc2ccccc21 (configuration not stated)	> 10 mg/kg	100 µM	–
CC(C)(C)c1ccc2c(c1)C1(CCS2)NC(=O)NC1=O (configuration not stated)	–	–	IC50 [3]: 100 µM
O=C(O)C1CCSc2ccc(Cl)cc21 (configuration not stated)	–	< 100 µM	–
S=C1NC(=S)C2(CCCc3ccccc32)N1 (configuration not stated)	> 25 mg/kg	> 100 µM	–
O=C1NC(=O)C2(CCSc3cc(Cl)ccc32)N1 (configuration not stated)	> 1.5 mg/kg	1 µM	–
O=C1NC(=O)C2(CCSc3ccc(Br)cc32)N1 (configuration not stated)	2.5 mg/kg	–	IC50 [1]: 1 µM
O=C(O)C1CCOc2c(Cl)cc(Cl)cc21 (configuration not stated)	–	10 µM	–
NC(=O)c1ccc2c(c1)C1(CCO2)NC(=O)NC1=O (configuration not stated)	> 100 mg/kg	–	IC50 [3]: 100 µM
O=C1NC(=O)C2(CCOc3ccccc32)N1 (configuration not stated)	5 mg/kg	10 µM	–
O=C1NC(=O)C2(CCS(=O)(=O)c3c(Cl)cc(Cl)cc32)N1 (configuration not stated)	> 1.5 mg/kg	0.1 µM	–
COc1ccc(Cl)cc1C1(C)NC(=O)NC1=O (configuration not stated)	–	> 100 µM	–
O=C1NC(=S)NC12CCCc1ccccc12 (configuration not stated)	–	> 100 µM	–
O=C1NC(=O)C2(CCCc3[nH]ccc32)N1 (configuration not stated)	> 25 mg/kg	> 100 µM	–

SMILES	ED50 [2, 9]	IC50 [4]	further results
O=C1NC(=O)C2(CCSc3ccc(F)cc32)N1 (configuration not stated)	1.5 mg/kg	–	IC50 [1]: 1 µM
COc1cccc2c3c(ccc12)C1(CCO3)NC(=O)NC1=O (configuration not stated)	> 1.5 mg/kg	0.1 µM	–
O=C1NC(=O)[C@@]2(CCOc3ccc(F)cc32)N1 (stereo in doubt; 32) [SORBINIL]	–	–	ED50 [2]: 0.75 mg/kg
Cc1ccc2c(c1)C1(CCO2)NC(=O)NC1=O (configuration not stated)	5 mg/kg	–	IC50 [8]: 10 µM
COc1ccc2c(c1)C1(CCS2)NC(=O)NC1=O (configuration not stated)	> 5 mg/kg	10 µM	–
O=C1NC(=O)C2(CCCCc3ccccc32)N1 (configuration not stated)	> 25 mg/kg	> 100 µM	–
O=C1NC(=O)[C@@]2(CCSc3ccc(F)cc32)N1	0.75 mg/kg	< 0.1 µM	–
O=C1NC(=O)C2(CCc3ccc(O)cc32)N1 (configuration not stated)	> 10 mg/kg	–	IC50 [3]: 100 µM
Cc1cc(C)c2c(c1)C1(CCO2)NC(=O)NC1=O (configuration not stated)	> 1.5 mg/kg	1 µM	–
O=C1CCC2(CCCc3ccccc32)C(=O)N1 (configuration not stated)	> 25 mg/kg	> 100 µM	–
O=C(O)C1CCc2ccccc21 (configuration not stated)	–	> 100 µM	–
O=C1NC(=O)C2(CCCc3ncccc32)N1 (configuration not stated)	10 mg/kg	10 µM	–
O=C1NC(=O)C2(CCSc3c(Cl)ccc(Cl)c32)N1 (configuration not stated)	–	> 100 µM	–
O=C1NC(=O)[C@]2(CCOc3ccc(F)cc32)N1	25 mg/kg	–	–
c1ccc2c(c1)CCC21CCNC1 (configuration not stated)	> 25 mg/kg	> 100 µM	–
Cc1cc2c(n1C)CCCC21NC(=O)NC1=O (configuration not stated)	> 25 mg/kg	> 100 µM	–
O=C(O)C1CCCc2ccccc21 (configuration not stated)	–	> 100 µM	–
O=C1NC(=O)C2(CCS(=O)(=O)c3ccccc32)N1 (configuration not stated)	20 mg/kg	–	IC50 [8]: 10 µM
O=C1NC(=O)C2(CCc3cc4c(cc32)OCO4)N1 (configuration not stated)	> 5 mg/kg	–	IC50 [8]: 10 µM
O=C1CC2(CCc3ccccc32)C(=O)N1 (configuration not stated)	> 2.5 mg/kg	> 100 µM	–
O=C1NC(=O)C2(CCOc3ccc(CN4CCCCC4)cc32)N1 (configuration not stated)	–	100 µM	–
COc1cccc2c1CCCC21NC(=O)NC1=O (configuration not stated)	> 25 mg/kg	10 µM	–

SMILES	ED50 [2, 9]	IC50 [4]	further results
O=C1NC(=O)C2(CCSc3cc(Cl)c(Cl)cc32)N1 (configuration not stated)	2.5 mg/kg	< 0.1 µM	–
O=C1NC(=O)C2(CCSc3c(Cl)cccc32)N1 (configuration not stated)	> 1.5 mg/kg	100 µM	–
O=C1NC(=O)C(c2ccccc2)(c2ccccc2)N1 [PHENYTOIN]	> 250 mg/kg	> 100 µM	–
O=C1NC(=O)C2(CCc3ccccc32)O1 (configuration not stated)	> 25 mg/kg	–	–
CN1C(=O)N(C)C2(CCCc3ccccc32)C1=O (configuration not stated)	25 mg/kg	> 100 µM	–
COc1ccc(Cl)c2c1CCCC21NC(=O)NC1=O (configuration not stated)	> 25 mg/kg	> 100 µM	–
O=C1NC(=O)C2(CC[S+]([O-])c3ccc(F)cc32)N1 (configuration not stated)	> 1.5 mg/kg	–	IC50 [1]: 1 µM
O=C1NC(=O)C2(CCCC3CCCCC32)N1 (configuration not stated)	< 25 mg/kg	> 100 µM	–
CS(=O)(=O)c1ccc2c(c1)C1(CCO2)NC(=O)NC1=O (configuration not stated)	–	–	IC50 [3]: 100 µM
NC(=O)C1(NC=O)CCc2ccccc21 (configuration not stated)	> 10 mg/kg	100 µM	–
O=C1NC(=O)C2(CCn3c(=O)ccc4cc(Cl)cc2c43)N1 (configuration not stated)	> 1.5 mg/kg	< 0.1 µM	–
COc1cc2c(cc1OC)C1(CC2)NC(=O)NC1=O (configuration not stated)	10 mg/kg	–	IC50 [8]: 10 µM
CSc1ccc2c(c1)C1(CCO2)NC(=O)NC1=O (configuration not stated)	< 25 mg/kg	1 µM	–
O=C(O)CC1(CC(=O)O)CCCC1	~500 mg/kg	–	IC50 [8]: 10 µM; IC50 [1]: 1 µM
Cc1ccc(C)c2c1OCCC21NC(=O)NC1=O (configuration not stated)	> 1.5 mg/kg	1 µM	–
COc1cc2c(c(OC)c1OC)C1(CC2)NC(=O)NC1=O (configuration not stated)	–	100 µM	–
O=C1NC(=O)C2(N1)c1ccccc1CCC2c1ccccc1 (configuration not stated)	> 25 mg/kg	> 100 µM	–
O=C1NC(=O)C2(CCSc3c(Cl)cc(Cl)cc32)N1 (configuration not stated)	–	< 0.1 µM	–
O=C(O)C1CCSc2cc(Cl)c(Cl)cc21 (configuration not stated)	–	10 µM	–
COc1cc2c(cc1OC)C1(CCC2)NC(=O)NC1=O (configuration not stated)	> 5 mg/kg	–	IC50 [3]: 100 µM
O=C1CC2(CCOc3ccc(Cl)cc32)C(=O)N1 (configuration not stated)	> 5 mg/kg	< 100 µM	–
CN(C)S(=O)(=O)c1ccc2c(c1)C1(CCO2)NC(=O)NC1=O (configuration not stated)	> 5 mg/kg	100 µM	–

SMILES	ED50 [2, 9]	IC50 [4]	further results
O=C1NCNC12CCCc1ccccc12 (configuration not stated)	25 mg/kg	> 100 µM	–
O=C1NC(=O)C2(CCOc3ccc4ccccc4c32)N1 (configuration not stated)	> 1.5 mg/kg	10 µM	–
O=C1NC(=O)C2(CCS(=O)(=O)c3ccc(F)cc32)N1 (configuration not stated)	2.5 mg/kg	–	IC50 [1]: 1 µM
O=C1NC(=O)C2(CCOc3c2ccc2cccnc32)N1 (configuration not stated)	> 1.5 mg/kg	10 µM	–
O=CNC(=O)NC1CCc2ccccc21 (configuration not stated)	> 10 mg/kg	> 100 µM	–
O=C1NCC2(CCc3ccccc32)N1 (configuration not stated)	–	> 100 µM	–
O=C1N=C(O)O[C@@]12CCOc1ccc(Cl)cc12	–	–	IC50 [3]: 100 µM
O=C1NC(=O)C2(CCOc3c(Cl)cc(Cl)cc32)N1 (configuration not stated)	0.25 mg/kg	< 0.1 µM	–
O=C1NC(=O)C2(CCOc3c(F)cccc32)N1 (configuration not stated)	–	< 100 µM	–
CC1CCC2(NC(=O)NC2=O)c2ccccc21 (configuration not stated)	> 25 mg/kg	100 µM	–
O=C1NC(=O)C2(CCCCC2)N1	> 25 mg/kg	100 µM	–
CC1CCc2ccccc2C12NC(=O)NC2=O (configuration not stated)	> 25 mg/kg	100 µM	–
O=C1NC(=O)C2(CCCC2c2ccccc2)N1 (configuration not stated)	> 25 mg/kg	> 100 µM	–
O=C1NC(=O)[C@]2(CCSc3ccc(F)cc32)N1	–	–	IC50 [8]: 10 µM
COc1ccc(Cl)c2c1C1(CCO2)NC(=O)NC1=O (configuration not stated)	–	> 100 µM	–
CN1CCC2(NC(=O)NC2=O)c2ccccc21 (configuration not stated)	> 25 mg/kg	–	IC50 [3]: 100 µM
O=C1NC(=O)C2(CCOc3c(-c4ccccc4)cccc32)N1 (configuration not stated)	10 mg/kg	–	–
Cc1cc(Cl)cc2c1OCCC21NC(=O)NC1=O (configuration not stated)	< 1.5 mg/kg	< 0.1 µM	–
O=C1NC(=O)C2(CCOc3ccc(Oc4ccccc4)cc32)N1 (configuration not stated)	25 mg/kg	–	–
O=C1NC(=O)C2(CCOc3ccc(Cl)cc32)O1 (configuration not stated)	> 1.5 mg/kg	–	–
O=C1NC(=O)C2(CCC(c3ccccc3)c3ccccc32)N1 (configuration not stated)	> 25 mg/kg	–	–
CC(C)(C)c1ccc2c(c1)C1(CCO2)NC(=O)NC1=O (configuration not stated)	–	–	IC50 [3]: 100 µM

SMILES	ED50 [2, 9]	IC50 [4]	further results
O=C1NC(=O)C2(CCOc3ccc(-c4ccccc4)cc32)N1 (configuration not stated)	> 1.5 mg/kg	< 100 µM	–
O=C(O)C1Cc2ccccc2C1	–	100 µM	–
COc1ccc2c(c1)CCC21NC(=O)NC1=O (configuration not stated)	> 25 mg/kg	10 µM	–
O=C1CC2(CCCc3ccccc32)CN1 (configuration not stated)	> 25 mg/kg	> 100 µM	–
O=C1NC(=O)C2(CCOc3c(Cl)cccc32)N1 (configuration not stated)	> 1.5 mg/kg	1 µM	–
O=C1CC2(CCCc3ccccc32)C(=O)N1 (configuration not stated)	5 mg/kg	> 100 µM	–
O=C1NC(=O)C2(CCCc3sccc32)N1 (configuration not stated)	25 mg/kg	100 µM	–
Cc1cc(Cl)cc2c1OCCC2C(=O)O (configuration not stated)	–	–	IC50 [8]: 10 µM
O=C(O)C1CCOc2c1cc(Cl)c1ccccc21 (configuration not stated)	> 25 mg/kg	1 µM	–
O=C1NC(=O)C2(CCOc3cc(C(F)(F)F)ccc32)N1 (configuration not stated)	5 mg/kg	1 µM	–
O=C1NC(=O)C2(CCCc3ccccc32)O1 (configuration not stated)	> 50 mg/kg	10 µM	–
O=C(O)C1CCOc2ccccc21 (configuration not stated)	–	100 µM	–
O=C1NC(=O)C2(CCc3ccc(F)cc32)N1 (configuration not stated)	5 mg/kg	–	IC50 [3]: 100 µM
COc1ccc2c(c1)C1(CCO2)NC(=O)NC1=O (configuration not stated)	> 2.5 mg/kg	–	IC50 [8]: 10 µM
O=C1NC(=O)C2(CCOc3c2ccc2ccccc32)N1 (configuration not stated)	> 1.5 mg/kg	< 100 µM	–
O=C1NCC2(CCOc3ccc(Cl)cc32)N1 (configuration not stated)	> 10 mg/kg	10 µM	–
O=C1NC(=O)C2(CCCc3occc32)N1 (configuration not stated)	25 mg/kg	–	–
O=C1NC(=O)C2(CCOc3cc(Cl)c(Cl)cc32)N1 (configuration not stated)	< 1.5 mg/kg	< 0.1 µM	–
O=C1NC(=O)C2(CCOc3ccc(Br)cc32)N1 (configuration not stated)	< 1.5 mg/kg	–	IC50 [1]: 1 µM
